US20190201377A1, “METHODS AND COMPOSITIONS FOR TREATMENT OF LIPID STORAGE DISORDERS” (Neurotrope BioScience, Inc., priority 2014, published 2019)

How the values were obtained:
[1] = system: M12 NPC1 CHO cells; assay: Cholesterol storage by filipin staining in NPC1 CHO (M12) cells; type: cell-based, Chinese hamster; conditions: for filipin fluorescence, % of levels in untreated cells: oleic/linoleic acids for 48 hours, M12 CHO cells
Experimental: The human wild-type fibroblast (GM05387), NPC1o fibroblast (GM09341), and NPC1 fibroblast (GM03123) cell lines were obtained from Coriell Cell Repositories (Camden, N.J.). The M12 Chinese hamster ovary (CHO) cell line and its wild-type parental line were obtained and cultured. Fibroblast cell lines were cultured in DMEM, and CHO cells were cultured in DMEM/F12 (50:50) medium, supplemented with 10% FBS, 2 mM L-glutamine, and 50 μg/ml gentamicin in a humidified incubator at 37° C. with 5% CO2. For filipin staining in transfected cells, cells were transfected with PKC or Rab9 using Fugene 6 according to the manufacturer's recommendations. After 48 hrs, cells were stained with filipin as we have previously described [3 7]. Cells were mounted onto slides using Fluoromount-G (Southern Biotech, Birmingham, Ala.) and analyzed on a Nikon Eclipse microscope fitted with a charge-coupled-device camera (Nikon, Melville, N.Y.). Images were acquired with MetaVue software and then deconvoluted using AutoDeblur software from AutoQuant Imaging, Inc (Troy, N.Y.). For quantitation of filipin fluorescence, cells were seeded at 3×10^5 cells/well in 6-well dishes and allowed to settle overnight, after which the medium was replaced with medium containing 10% lipoprotein deficient serum (LPDS) for 4 days. Cells were incubated with oleic/linoleic acids for 48 hours, […] for 24 hrs, or diazoxide for 72 hrs before fixing and staining with filipin as we have previously described. Images were acquired using the same exposure time for all samples. Fluorescence intensity was determined using the integrated intensity function of MetaVue software; at least 150 cells were quantitated for each sample and each experiment was repeated 3 times. For analysis of sphingolipid transport, cells were incubated with oleic/linoleic acids, DCP-LA, or PMA for 48 hours before BODIPY-LacCer staining was performed as previously described.

[2] = system: human NPC1 3123 cells; assay: Sphingolipid transport by BODIPY-LacCer staining; type: cell-based; conditions: 48 hours
Excerpt: For filipin staining in transfected cells, cells were transfected with PKC or Rab9 using Fugene 6 according to the manufacturer's recommendations. After 48 hrs, cells were stained with filipin as we have previously described [3 7]. Cells were mounted onto slides using Fluoromount-G (Southern Biotech, Birmingham, Ala.) and analyzed on a Nikon Eclipse microscope fitted with a charge-coupled-device camera (Nikon, Melville, N.Y.). Images were acquired with MetaVue software and then deconvoluted using AutoDeblur software from AutoQuant Imaging, Inc (Troy, N.Y.). For quantitation of filipin fluorescence, cells were seeded at 3×10^5 cells/well in 6-well dishes and allowed to settle overnight, after which the medium was replaced with medium containing 10% lipoprotein deficient serum (LPDS) for 4 days. Cells were incubated with oleic/linoleic acids for 48 hours, DCPLA/DHA for 24 hrs, or diazoxide for 72 hrs before fixing and staining with filipin as we have previously described. Images were acquired using the same exposure time for all samples. Fluorescence intensity was determined using the integrated intensity function of MetaVue software; at least 150 cells were quantitated for each sample and each experiment was repeated 3 times. For analysis of sphingolipid transport, cells were incubated with oleic/linoleic acids, DCP-LA, or PMA for 48 hours before BODIPY-LacCer staining was performed as previously described.
To further confirm the positive effects of DCP-LA and fatty acids on the NPC1 phenotype, human NPC1 cells were treated with DCP-LA, fatty acids, or PMA to activate PKCs. […] Following absorption to the plasma membrane, the LacCer sphingolipid enters normal cells via endocytosis and eventually reaches the trans-Golgi network (TGN; [30]). […] Human NPC1 cells treated as indicated in FIG. 7 show a dramatic improvement in lipid transport with the BODIPY-LacCer effectively reaching the TGN (FIG. 7; arrows) compared to untreated cells that show only punctate, endosomal fluorescence (FIG. 7A).

[3] = system: M12 NPC1 CHO cells; assay: Cholesterol esterification assay in M12 NPC1 CHO cells; type: cell-based, Chinese hamster; conditions: for esterification levels over untreated cells: 50 μg/ml fatty acid for 2 days followed by expression of PKC ε
Experimental: The preparation of [3H] oleate substrate and esterification assays were performed as previously described. Cells were treated with 50 μg/ml fatty acid for 2 days and then transfected with […] or PKCε for 24 hrs before esterification assays. All values were generated in triplicate and normalized for total cell protein.

[4] = system: human NPC1 3123 cells; assay: Cholesterol storage by filipin staining in human NPC1 3123 fibroblasts; type: cell-based; conditions: oleic/linoleic acids for 48 hours
Experimental: The human wild-type fibroblast (GM05387), NPC1o fibroblast (GM09341), and NPC1 fibroblast (GM03123) cell lines were obtained from Coriell Cell Repositories (Camden, N.J.). The M12 Chinese hamster ovary (CHO) cell line and its wild-type parental line were obtained and cultured. Fibroblast cell lines were cultured in DMEM, and CHO cells were cultured in DMEM/F12 (50:50) medium, supplemented with 10% FBS, 2 mM L-glutamine, and 50 μg/ml gentamicin in a humidified incubator at 37° C. with 5% CO2. For filipin staining in transfected cells, cells were transfected with PKC or Rab9 using Fugene 6 according to the manufacturer's recommendations. After 48 hrs, cells were stained with filipin as we have previously described [3 7]. Cells were mounted onto slides using Fluoromount-G (Southern Biotech, Birmingham, Ala.) and analyzed on a Nikon Eclipse microscope fitted with a charge-coupled-device camera (Nikon, Melville, N.Y.). […] For quantitation of filipin fluorescence, cells were seeded at 3×10^5 cells/well in 6-well dishes and allowed to settle overnight, after which the medium was replaced with medium containing 10% lipoprotein deficient serum (LPDS) for 4 days. […] Fluorescence intensity was determined using the integrated intensity function of MetaVue software; at least 150 cells were quantitated for each sample and each experiment was repeated 3 times. […]

[5] = system: NPC cells; conditions: PMA treatment of NPC cells, earlier study [5]; cited from earlier work
[6] = system: NPC3SV cells; type: cell-based, Human
[7] = system: human NPC24-SV cells; assay: Cholesterol accumulation by filipin staining in NPC24-SV cells; type: cell-based; conditions: for effect in cholesterol assay: NPC24-SV cells, FIG. 13
Experimental: (§1) Cells are plated in 6-well dishes and treated with the appropriate compound (dissolved in DMSO) at the indicated dose daily for 48 hrs. Control cells receive DMSO. After 48 hrs cells are transferred to cover slips with fresh compound and grown for another 24 hrs. Cover slips are collected and processed for microscopy.
(§2) For detection of unesterified cholesterol in lysosomes, cells were fixed in formalin for 30 min at 4° C., washed 2×, 5 min in 0.9% NaCl, incubated for 45 min with 0.01% filipin in PBS at room temperature, and then washed 2×, 5 min. Fluorescence was observed using a Nikon Eclipse fluorescence microscope (Nikon, Melville, N.Y.) equipped with a CCD camera. Fluorescence signals were quantified using Nikon's imaging and quantitation software package NIS Elements, v.3.22.

[8] = system: NPC3-SV cells; assay: Stored cholesterol by filipin staining in NPC3-SV cells; type: cell-based, Human; conditions: for clearance of cholesterol from NPC1 cells: 48 h, FIG. 8, different drug concentrations; for stored cholesterol levels: 72 h, FIG. 9
Experimental: as §1, §2

[9] = system: NPC3-SV cells; type: cell-based, Human
[10] = system: C57 NPC1 mice; assay: Treatment of C57 NPC1 mice, life span; type: in vivo, mouse
Experimental: A total of […] C57B16 NPC1 mice, mixed sex, were used. These mice were separated into […], Groups 1-5.
Bryostatin 1 (purity ≥:95%) from Aphios (Woburn, Mass.), 1 vial 2 mg, was solubilized in a 5% DMSO, 20% Solutol and 75% Saline solution and used as the study drug. The negative (vehicle) control is a 5% DMSO, 20% Solutol and 75% Saline solution. DCP-LA from Sigma-Aldrich: 5 mg oil/vial was used as an additional in vitro active compound. Bryostatin 1 (API) was stored at or below −20° C. and formulated as needed. The formulated bryostatin 1 was stored at 2° to 8° C. for less than 24 hour(s). The DCP-LA and the vehicle controls were stored at 2°-8° C.
The stock solution of bryostatin 1 is 1 Omg/ml in DMSO, which is kept at −80° C. in aliquots. The dosing formulation is made by diluting the stock first in DMSO, then adding solutol, and lastly saline-with more insoluble compounds, adding the drug stock to complete vehicle will cause the compound to come out of solution, so we make formulations stepwise. The dosing volume is always 100 μl. Mice weigh approximately 20 g.
The mice are dosed twice weekly (Mon and Thu) starting at 30 days for up to 150 days.
C57 NPC1 mice have an average life span of ˜110 days. By Day 70 mice reach an average weight of 18-22 grams. Untreated NPC1 mice develop ataxia and will begin to lose weight at ˜70 days (see FIG. 17). Ataxia (or lack of voluntary muscle control) is a clinical feature of NPC1 mice, which may be described as shaking. Treatment will be initiated at ˜30 days of age, average NPC mouse weight of 10 g. If the drug is efficacious injections will continue past day 70-80. An extension of life of about 20-30% will mean that animals will need to be treated up to day 130-150.

[11] = system: human NPC24-SV cells; assay: Glycosphingolipid accumulation by VTB staining in NPC24-SV cells; type: cell-based

CCCCC/C=C\C/C=C\CCCCCCCC(=O)O [linoleic acid]
filipin fluorescence, % of levels in untreated cells [1]: ~75% | BODIPY-LacCer transport to the trans-Golgi network ([2]; 2 μg/ml linoleic acid): the lipid can be seen in the TGN | increase of cholesterol esterification compared to untreated M12 cells ([3]; 50 μg/ml fatty acid for 2 days): greater than 2 fold | esterification levels over untreated cells [3]: ~3.5 fold | filipin fluorescence, % of levels in untreated cells [4]: ~75%

CCCCCCCCCCCCCC(=O)O[C@@H]1[C@@H](C)[C@@]2(O)[C@@H](C=C(CO)C[C@]3(O)C(=O)C(C)=C[C@@H]23)[C@@H]2C(C)(C)[C@]12OC(C)=O [PMA, phorbol-12-myristate-13-acetate]
NPC lipid storage phenotype [5]: ameliorated the NPC lipid storage phenotype | BODIPY-LacCer transport to the trans-Golgi network ([2]; 100 nM PMA): the lipid can be seen in the TGN

CCCCCC1CC1CC1CC1CCCCCCCC(=O)O (stereo not shown) [DCP-LA, 8-[2-(2-pentylcyclopropylmethyl)-cyclopropyl]-octanoic acid]
reduction of cholesterol storage (filipin intensity) ([1]; 100 μM DCP-LA, 24 hrs (overnight)): ~50% | BODIPY-LacCer transport to the trans-Golgi network ([2]; 20 μM DCP-LA): the lipid can be seen in the TGN | ganglioside transport block (CTB) ([6]; DCPLA, concentration not given, NPC3SV cells, FIG. 12): release the ganglioside transport block | filipin accumulation ([7]; DCPLA, concentration not given, NPC24-SV cell line, FIG. 11): decrease filipin accumulation | clearance of cholesterol from NPC1 cells [8]: able to induce clearance of cholesterol | stored cholesterol levels [8]: decrease stored cholesterol levels | stored glycosphingolipid levels (VTB) [9]: decrease stored glycosphingolipid levels

CC/C=C\C/C=C\C/C=C\C/C=C\C/C=C\C/C=C\CCC(=O)O [DHA, docosahexanoic acid]
reduction of cholesterol storage (filipin intensity) ([1]; 10 μM DHA, 24 hrs (overnight)): ~50%

CCC/C=C/C=C/C(=O)O[C@H]1/C(=C/C(=O)OC)C[C@H]2C[C@H]([C@@H](C)O)OC(=O)C[C@H](O)C[C@@H]3C[C@H](OC(C)=O)C(C)(C)[C@](O)(C[C@@H]4C/C(=C/C(=O)OC)C[C@H](/C=C/C(C)(C)[C@]1(O)O2)O4)O3 [bryostatin 1]
age that mice lived past ([10]; 10 μg/kg IP twice weekly starting at 30 days): > 100 days | age that mice lived past ([10]; 20 μg/kg IP twice weekly starting at 30 days): > 100 days | age that mice lived past ([10]; 30 μg/kg IP twice weekly starting at 30 days): > 100 days | clearance of endosome-trapped cholera toxin (CTB) [6]: able to clear the endosome-trapped cholera toxin (CTB) | effect in cholesterol assay ([7]; 0.1 nM): no effect | effect in cholesterol assay ([7]; 1 nM, increases with increasing concentration): statistically significant | cholesterol clearance ([7]; 10 nM bryostatin 1, NPC24-SV cell line, FIG. 11): able to effect cholesterol 2 clearance | concentration showing a positive therapeutic effect for human NPC1 disease cells ([7]; summary of the cholesterol and glycosphingolipid assays of Example 2): 10 to 100 nM | effect in sphingolipid assay ([11]; 0.1 nM, FIG. 14): no effect | effect in sphingolipid assay ([11]; 1 nM, FIG. 14, increases with increasing concentration): statistically significant | clearance of cholesterol from NPC1 cells [8]: able to induce clearance of cholesterol | stored cholesterol levels [8]: most active compound showing activity in the nanomolar concentration range | glycosphingolipid accumulation (VTB) [9]: statistically significant effectiveness in decreasing the glycosphingolipid accumulation

CCCCCCCC/C=C\CCCCCCCC(=O)O [oleic acid, cis-9-octadecenoic acid]
filipin fluorescence, % of levels in untreated cells [1]: ~75% | BODIPY-LacCer transport to the trans-Golgi network ([2]; 2 μg/ml oleic acid): the lipid can be seen in the TGN | esterification levels over untreated cells [3]: ~3.5 fold | filipin fluorescence, % of levels in untreated cells [4]: ~75%

CC1=NS(=O)(=O)c2cc(Cl)ccc2N1 [diazoxide]
reduction of cholesterol storage (filipin intensity) ([1]; 100 μM diazoxide, 72 hrs): ~50% | clearance of cholesterol from NPC1 cells [8]: able to induce clearance of cholesterol
